Measurements: ChEMBL document CHEMBL3228035, “Deoxymorphines: role of the phenolic hydroxyl in antinociception and opiate receptor interactions” (J Med Chem, 1979)
Where a name gives a salt, the structure may show the parent alone.

What was measured:
[1] = system: Mus musculus; experiment: Antinociceptive activity in sc dosed mouse by Nilsen assay; assay type: functional
[2] = system: Mus musculus; experiment: Antinociceptive activity in sc dosed mouse by hot-plate assay; assay type: functional

| Structure (SMILES) | ED50 [1] | ED50 [2] |
| --- | --- | --- |
| CN1CC[C@]23c4c5ccc(O)c4O[C@H]2C(=O)CC[C@H]3[C@H]1C5 [HYDROMORPHONE HYDROCHLORIDE] | 0.7 µmol/kg | 0.4 µmol/kg |
| CN1CC[C@]23c4c5cccc4O[C@H]2[C@@H](O)CC[C@H]3[C@H]1C5 | 8.1 µmol/kg | 4.2 µmol/kg |
| CN1CC[C@]23c4c5ccc(O)c4O[C@H]2CCC[C@H]3[C@H]1C5 |  | 0.14 µmol/kg |
| CN1CC[C@]23c4c5cccc4O[C@H]2C(=O)CC[C@H]3[C@H]1C5 | 2.8 µmol/kg | 1.8 µmol/kg |
| c1cc2c3c(c1)O[C@H]1CCC[C@H]4[C@@H](C2)NCC[C@]314 | 4.4 µmol/kg | 1.3 µmol/kg |
| C=CCN1CC[C@]23c4c5ccc(O)c4O[C@H]2[C@@H](O)C=C[C@H]3[C@H]1C5 [NALORPHINE HYDROCHLORIDE] | 13.8 µmol/kg | 105 µmol/kg |
| C=CCN1CC[C@]23c4c5cccc4O[C@H]2[C@@H](O)CC[C@H]3[C@H]1C5 | 59.9 µmol/kg | 44 µmol/kg |
| CN1CC[C@]23c4c5cccc4O[C@H]2[C@@H](O)C=C[C@H]3[C@H]1C5 | 30.9 µmol/kg | 8.6 µmol/kg |
| CN1CC[C@]23c4c5ccc(O)c4O[C@H]2[C@@H](O)CC[C@H]3[C@H]1C5 |  | 2.5 µmol/kg |
| CN1CC[C@]23CCCC[C@H]2[C@H]1Cc1ccc(O)cc13 | 0.5 µmol/kg | 0.5 µmol/kg |
| CN1CCC23CCCCC2C1Cc1ccccc13 (racemic) |  | 16.5 µmol/kg |
| CN1CC[C@]23c4c5ccc(O)c4O[C@H]2[C@@H](O)C=C[C@H]3[C@H]1C5 | 4.1 µmol/kg | 3.3 µmol/kg |
| O[C@H]1CC[C@H]2[C@H]3Cc4cccc5c4[C@@]2(CCN3)[C@H]1O5 | 67.8 µmol/kg | 45.3 µmol/kg |
